Reference: paper PMC12680861, “Comparative analysis of LJ-4378 and tirzepatide in mouse models of obesity and weight regain” (Archives of Pharmacal Research, 2025)

Columns and labels:
CYP1A2 = molecular target: T1, CYP1A2 (Homo sapiens, UniProt P05177); assay: CYP enzyme inhibition in pooled human liver microsomes (phenacetin substrate); settings: microsomes, 10 µM
T1 sequence (P05177 1-516): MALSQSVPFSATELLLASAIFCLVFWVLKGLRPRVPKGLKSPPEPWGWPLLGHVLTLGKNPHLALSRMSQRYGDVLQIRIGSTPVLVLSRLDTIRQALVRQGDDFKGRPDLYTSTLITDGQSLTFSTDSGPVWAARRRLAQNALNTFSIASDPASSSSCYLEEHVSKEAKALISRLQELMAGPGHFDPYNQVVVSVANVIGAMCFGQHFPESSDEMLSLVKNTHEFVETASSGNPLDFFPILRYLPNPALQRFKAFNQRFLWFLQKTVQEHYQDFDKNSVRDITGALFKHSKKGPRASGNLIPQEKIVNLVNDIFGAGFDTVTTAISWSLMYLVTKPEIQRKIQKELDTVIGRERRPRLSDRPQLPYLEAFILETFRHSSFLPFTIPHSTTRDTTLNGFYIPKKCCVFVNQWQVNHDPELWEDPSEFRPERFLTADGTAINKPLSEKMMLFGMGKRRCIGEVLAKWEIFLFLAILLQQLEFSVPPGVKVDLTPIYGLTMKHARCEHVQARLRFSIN
Method: (§1) Cytochrome 450 (CYP) enzyme inhibition was evaluated using pooled human liver microsomes (Corning, #452117). […] Substrates and corresponding metabolites for each CYP isoform were as follows: phenacetin and acetaminophen for CYP1A2 (Sigma Aldrich, #77440 and A7085, respectively), diclofenac and 4'-hydroxydiclofenac for CYP2C9 (Sigma Aldrich, D6899; TRC, H825225), S-mephenytoin and 4'-hydroxymephenytoin for CYP2C19 (Sigma Aldrich, UC175; Santacruz, sc210197), dextromethorphan and dextrorphan for CYP2D6 (Sigma Aldrich, #81091 and UC205), and midazolam and 1'-hydroxymidazolam for CYP3A4 (KFDA; Sigma Aldrich, UC430).
(§2) Samples were preincubated at 37 °C for 5 min, and the reaction was initiated by the addition of the NADPH regeneration system, followed by incubation at 37 °C for 15 min. The reaction was terminated by adding acetonitrile containing the internal standard, and centrifuged at 15,000 rpm for 5 min at 4 °C. The supernatant was analyzed by LC–MS/MS using a Nexera XR system (Shimadzu, Japan) coupled with a TSQ Vantage mass spectrometer (Thermo, USA). […] Metabolites were quantified in multiple reaction monitoring (MRM) mode with Xcalibur software (version 4.4).
(§3) All experiments were performed in duplicate with variability ≤ 15%. The percent activity of each CYP enzyme was calculated based on metabolite formation relative to the no-inhibitor control.

CYP3A4 = CYP3A4 (Homo sapiens, UniProt P08684); assay: CYP enzyme inhibition in pooled human liver microsomes (midazolam substrate); settings: at 10 µM, 15 min
Sequence of CYP3A4 (P08684 whole entry): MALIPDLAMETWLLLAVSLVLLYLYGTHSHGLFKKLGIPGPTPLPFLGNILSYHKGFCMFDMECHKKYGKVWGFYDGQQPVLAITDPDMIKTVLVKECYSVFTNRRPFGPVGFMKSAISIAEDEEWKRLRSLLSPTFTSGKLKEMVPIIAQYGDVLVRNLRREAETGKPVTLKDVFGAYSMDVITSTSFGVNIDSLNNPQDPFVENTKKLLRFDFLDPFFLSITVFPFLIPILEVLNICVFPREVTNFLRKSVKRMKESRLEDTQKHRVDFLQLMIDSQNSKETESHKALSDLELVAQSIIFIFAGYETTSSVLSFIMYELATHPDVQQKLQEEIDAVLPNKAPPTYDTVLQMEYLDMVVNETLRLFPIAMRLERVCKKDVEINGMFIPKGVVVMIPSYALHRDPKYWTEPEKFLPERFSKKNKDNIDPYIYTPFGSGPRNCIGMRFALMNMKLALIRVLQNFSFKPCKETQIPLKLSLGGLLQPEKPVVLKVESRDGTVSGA
Method: as §1, §2, §3

WR mice = assay: WR model: indirect calorimetry and adipose immunoblot after treatment cessation; assay type: in vivo, C57BL/6 J male mice
Description: To assess post-treatment weight rebound (WR), the mice previously treated with vehicle, LJ-4378, or TZP were maintained on HFD for an additional 4 weeks following treatment cessation. Treatment protocols for the WR groups were identical to those of the HFD groups. In total, nine experimental groups were established: NCD + CTL, NCD + LJ, NCD + TZP; HFD + CTL, HFD + LJ, HFD + TZP; and WR + CTL, WR + LJ, WR + TZP. The volume of oxygen consumed (VO2), carbon dioxide produced (VCO2), respiratory exchange ratio (RER), energy expenditure, activity, and food intake were measured with PhenoMaster (TSE Systems, Bad Homburg, Germany). Indirect calorimetry was performed under controlled conditions, with a stable ambient temperature of 24 °C and a 12 h light/12-h dark cycle. Mice fed HFD were administered vehicle, LJ-4378, or TZP for 14 days, and the last 2 days of treatment were conducted during indirect calorimetry analysis. The WR model was examined by indirect calorimetry after 2 and 4 weeks of the weight regaining phase.
For protein extraction, we utilized PRO-RERP Protein Extraction Solution (17081, iNtRON Biotechnology, Gyeonggi-do, Korea), supplemented with […] Protease Inhibitor (S8820, Sigma, St. Louis, MO, USA) and PhosSTOP phosphatase inhibitor (#4906837001, Roche, Basel, Switzerland). Protein concentrations were determined using the Pierce BCA protein assay Kit (#23227, Thermo Fisher, Waltham, Massachusetts, USA) by measuring absorbance at 562 nm with a MultiSkan GO spectrophotometer (Thermo Fisher). The quantified proteins were loaded and separated in 12% SDS-PAGE gels and transferred to polyvinylidene difluoride (PVDF) membranes (Bio-Rad, Hercules, CA, USA). Membranes were blocked in 5% bovine serum albumin or skim milk in Tris-buffered saline with 0.1% Tween 20 (TBST) for 1 h, followed by overnight incubation with primary antibodies. The next day, membranes were washed 3 times with TBST and incubated for 1 h with horseradish peroxidase (HRP)-conjugated secondary antibody: Goat anti-rabbit (1:3000, #31460, Thermo Fisher) and Goat anti-Mouse IgG (1:3000, 115–035-174, Jackson ImmunoResearch). After secondary antibody incubation, membranes were washed 3 times with TBST and detected with the Fusion Solo chemiluminescence imaging system (Vilber Lourmat, France). EvolutionCapt (version 17.03) software and the ImageJ (National Institutes of Health, Bethesda, MD, USA) program were used for analysis and to quantify the protein level.

Plasma stability assay = assay type: in vitro ADME, human; settings: 37 °C, 30 min
Method: The plasma stability of LJ-4378 was evaluated using 100% plasma obtained from human (Biochemed, BC22089NCP, sodium citrate), rat (Innovative, IRT-N, sodium citrate), and mouse (Biochemed, 029-APSC-MP, sodium citrate). 10 Μm of LJ-4378 was added to the plasma, and samples were incubated at 37 °C for 0, 30, and 120 min. At each time point, an aliquot of the plasma was removed and mixed with acetonitrile containing the internal standard, chlorpropamide (TRC, C424800). […] The supernatant was injected into the LC–MS/MS system for quantification of the remaining compound. Analysis was performed using a Nexera XR system (Shimadzu, Japan) with a TSQ Vantage mass spectrometer (Thermo, USA). […] Data acquisition was conducted in MRM mode using Xcalibur software (version 4.4). All experiments were performed in duplicate with a deviation within 15%, and the percentage of compound remaining (% Remaining) at each time point was calculated relative to the non-incubated control sample. For quality control, procaine and enalapril (each at 10 μM) were used as reference compounds and were confirmed to fall within acceptable ranges.

[1] = two weeks after treatment cessation

Compound: CCCCC#Cc1nc(N)c2ncn([C@@H]3SC[C@@H](O)[C@H]3O)c2n1 [LJ-4378]
- % of control activity CYP1A2 (CYP1A2): 82.2%
- % of control activity CYP3A4 (CYP3A4): 96.9%
- P-HSL and mitochondrial proteins in BAT and iWAT, versus WR controls and TZP (WR mice; 2 weeks after treatment cessation): higher levels
- energy expenditure, ANCOVA adjusted for body mass, versus vehicle or TZP (WR mice; 2 weeks post-treatment, WR): higher energy expenditure
- elevated energy expenditure after 4 weeks of WR (WR mice; 4 weeks post-treatment): no longer evident
- VO2, VCO2 and energy expenditure compared with TZP-treated group (WR mice; [1]): significantly higher
- VO2, VCO2 and energy expenditure compared with WR controls (WR mice; [1]): elevated
- % Remaining compound, Human plasma 30 min (Plasma stability assay): 97.0%
